Results reported in PMC10892984, “Novel Antineoplastic Inducers of Mitochondrial Apoptosis in Human Cancer Cells” (Molecules, 2024).

Tested on: HL-60 (TB)
Details: for TGI: HL-60 (TB), leukemia, mutant p53, 48 h; for CC50: read-out: LC50

Row | Compound | TGI | GI50 (Homo sapiens, HL-60, 48 h) | CC50 (Homo sapiens, HL-60, 48 h)
1 | COc1cc2c(c(OC)c1OC)-c1ccc(NNC(N)=S)c(=O)cc1C(NC(C)=O)CC2 [Compound 2, N-[(aS,7S)-10-(2-carbamothioylhydrazinyl)-1,2,3-trimethoxy-9-oxo-5,6,7,9-tetrahydrobenzo[a]heptalen-7-yl]acetamide monohydrate × ⅔ (ethyl acetate)] | 1260 nM | 113 nM | > 100000 nM
2 | COc1cc2c(c(OC)c1OC)-c1ccc(NNC(=S)N(Cc3cccc(C[N+](Cc4cccc(CNC56CC7CC(CC(C7)C5)C6)c4)(Cc4cccc(CNC56CC7CC(CC(C7)C5)C6)c4)Cc4cccc(CN(C(=S)NNc5ccc6c(cc5=O)C(NC(C)=O)CCc5cc(OC)c(OC)c(OC)c5-6)C56CC7CC(CC(C7)C5)C6)c4)c3)C34CC5CC(CC(C5)C3)C4)c(=O)cc1C(NC(C)=O)CC2 [Compound 3, [(bis{3-[(tricyclo[3.3.1.1^3,7]decan-1-ylamino)methyl]benzyl}ammonio)bis(methanediylbenzene-3,1-diylmethanediyl)]di-2-[(aS,7S)-7-(acetylamino)-1,2,3-trimethoxy-9-oxo-5,6,7,9-tetrahydrobenzo[a]heptalen-10-yl]-N-(tricyclo[3.3.1.1^3,7]decan-1-yl)hydrazinecarbothioamide chloride pentahydrate] | 1030 nM |  | 
3 | c1cc(CNC23CC4CC(CC(C4)C2)C3)cc(C[N+](Cc2cccc(CNC34CC5CC(CC(C5)C3)C4)c2)(Cc2cccc(CNC34CC5CC(CC(C5)C3)C4)c2)Cc2cccc(CNC34CC5CC(CC(C5)C3)C4)c2)c1 (centres unmarked) [Compound 1, tetrakis{3-[(tricyclo[3.3.1.1^3,7]decan-1-ammonio)methyl]benzyl}ammonium pentachloride] |  |  | > 50000 nM
